Numbers after ± are expanded uncertainties.
Assay: wn = mass fraction of the nth substance listed
Settings: 298.15 K, 101 kPa, Liquid; for viscosity: Capillary tube (Ostwald / Ubbelohde) method; for mass density: Pycnometric method

## C1COCCO1 [1,4-dioxane] + C1CCOC1
w1 = 0.1
  viscosity: 0.49 ± 0.014 mPa·s
  mass density: 894.1 ± 4.5 kg/m3
w1 = 0.2
  viscosity: 0.51 ± 0.014 mPa·s
  mass density: 907.1 ± 4.6 kg/m3
w1 = 0.3
  viscosity: 0.53 ± 0.015 mPa·s
  mass density: 919 ± 4.8 kg/m3
w1 = 1
  viscosity: 1.2 ± 0.031 mPa·s
  mass density: 1030.5 ± 6 kg/m3

## C1CCOC1 [tetrahydrofuran] + C1COCCO1
w2 = 0
  viscosity: 0.463 ± 0.013 mPa·s
  mass density: 880.7 ± 4.4 kg/m3

Source: the NIST ThermoML archive (doi:10.1021/je7004787)
